Test results as given in patent US6034092A, “2-[2-[(2-hydroxyethyl)amino]ethy [ l]-5-[[2-methylamino)ethyl]amino]indazolo4,3-gh]isoquinolin-6(2H)-one as antitumor agent” (priority 1995, dated 2000).
Values after ≈ are worked out from the molar mass of the structure shown. Read-outs that look alike come from different tables or passages of the source.

What was measured:
ovary tumor A2780 = assay: in vivo human ovary tumor xenograft A2780 in mice, sc/iv; conditions: A 2780 sc/iv q4dx3; for Tumor regression: 30 days after end of treatment
Procedure: (§1) The evaluation of the biological activity for the compound of this invention was performed "in vitro" and "in vivo" following the protocols developed by the U.S. National Cancer Institute.
(§2) Further in vivo studies of biological activity of the compound of the invention were carried out using two human tumor xenografts, the human breast MX-1 tumor and the ovary tumor A2780 (Table II). […] The "tumor weight inhibition" can be evaluated as follows:
(§3) TWI%=100-[(average relative weight of the tumortreated /average
(§4) relative weight of the tumorcontrols)100]
(§5) By tumor regression, it is meant the reduction of the tumor mass measured 30 days after the end of the treatment compared with the tumor starting weight. Complete tumor regression means the disappearance of the tumor mass.
(§6) In vivo biological evaluation of the compound of the invention (I),
(§7) and A 2780) models in mice

human breast MX-1 tumor = assay: in vivo human breast tumor xenograft MX-1 in mice, sc/iv; conditions: MX-1 sc/iv q7dx3
Procedure: as §1, §2, §3, §4, §5, §6, §7

[1] = W.H.O. grade; dose-limiting, phase I and II; cited from earlier work
P388 murine leukemia = assay: in vivo P388 murine leukemia model, iv/iv; conditions: for survival time of the treated animals (in words): P388, compared with controls (untreated animals) or with analogues
Procedure: as §1
Treatment was initiated approximately 24 hours after tumor transplantation and dosages of the product were administered iv according to preestablished protocols, usually at 3-day intervals. The studies were done over a 60 day period and the date of death for each animal was recorded. The % T/C was determined using the median survival time (MST) for each group according to the formula
T/C%=[(MSTtreated)/(MSTcontrols)]×100

[2] = rat; cited from earlier work
[3] = test system: human colon adenocarcinoma cell line (LoVo); assay: in vitro cytotoxic activity, MTT assay, LoVo; type: cell-based; conditions: for IC50: Homo sapiens, read-out: IC50 ± S.D.
Procedure: as §1
The evaluation of the "in vitro" cytotoxic activity was performed using a human colon adenocarcinoma cell line (Lovo) isolated from a metastatic nodule.

[4] = man; cited from earlier work
[5] = limiting aspect; cited from earlier work
[6] = test system: cell histotypes developing resistance already against doxorubicin; conditions: doxorubicin-resistant cell histotypes, over-expression of glycoprotein P; cited from earlier work
[7] = test system: human breast MX-1 tumor and the ovary tumor A2780; assay: in vivo antitumor evaluation in human tumor xenografts MX-1 and A2780; set-up: species or system human tumor xenografts in mice; conditions: for complete tumor regressions (in words): contrary to CI-941
Procedure: as §2, §3, §4, §5

[8] = 1 hour after treatment with the medicament

## O=C1c2c(O)cccc2-c2nn(CCNCCO)c3ccc(NCCNCCO)c1c23 [CI-941]
Ovary tumor A2780; 8 mg/kg
  TWI %: 87%
  Tox.: 0/7
  Tumor regression: 0/7
Ovary tumor A2780; 10.4 mg/kg
  TWI %: 97%
  Tox.: 0/7
  Tumor regression: 0/7
Ovary tumor A2780; 13.5 mg/kg
  TWI %: 100%
  Tox.: 5/7
  Tumor regression: 1/7
Human breast MX-1 tumor; 9 mg/kg
  TWI %: 83%
  Tox.: 0/7
Human breast MX-1 tumor; 13.5 mg/kg
  TWI %: 93%
  Tox.: 0/40
Human breast MX-1 tumor; 17.5 mg/kg
  TWI %: 97%
  Tox.: 9/33
[1]
  leukopenia: severe leukopenia (W.H.O. grade 3 and 4)
  neutropenia: neutropenia (W.H.O. grade 4)
P388 murine leukemia; P388 iv/iv + 1,4,7, 6 mg/kg
  T/C %: 133%
  Tox.: 0/8
P388 murine leukemia; P388 iv/iv + 1,4,7, 9 mg/kg
  T/C %: 144%
  Tox.: 0/8
P388 murine leukemia; P388 iv/iv + 1,4,7, 13.5 mg/kg
  T/C %: 133%
  Tox.: 0/8
[2]
  nephrotoxicity: marked nephrotoxicity
[3]; 1 h
  IC50: 0.039 ± 0.035 µg/mL (≈ 0.0917 µM)
[4]
  cardiotoxicity: irreversible cardiotoxicity

## O=C1c2ccccc2C(=O)c2c(NCCNCCO)ccc(NCCNCCO)c21 [ametantrone, 4-bis{[2-(2-hydroxyethylamino)ethyl]amino]anthracene-9,10-dione]
[5]
  toxicity (myelodepression): mielodepressive toxic effect
[6]
  cross-resistance: cross-resistance

## CNCCNc1ccc2c3c(nn2CCNCCO)-c2cnccc2C(=O)c13 [compound (I)]
Ovary tumor A2780; 7.5 mg/kg
  TWI %: 99%
  Tox.: 0/7
  Tumor regression: 4/7
Ovary tumor A2780; 9.7 mg/kg
  TWI %: 100%
  Tox.: 0/7
  Tumor regression: 6/7
Human breast MX-1 tumor; 8.9 mg/kg
  TWI %: 78%
  Tox.: 0/5
Human breast MX-1 tumor; 17.5 mg/kg
  TWI %: 96%
  Tox.: 0/5
P388 murine leukemia; listed as 2-[2-[(2-hydroxyethyl)amino]ethyl]-5-[[2-(methylamino)ethyl]amino]indazolo[4,3-g
  survival time of the treated animals (in words): higher increase in the average survival time of the treated animals (expressed as % T/C) than that obtained with its analogues
P388 murine leukemia; listed as compound of the invention
  survival time of the treated animals (in words): active in increasing the survival time of the treated animals
P388 murine leukemia; P388 iv/iv + 1,4,7, 7.5 mg/kg
  T/C %: 167%
P388 murine leukemia; compared with mitoxantrone, Table II
  tolerability (in words): better tolerated than mitoxantrone
P388 murine leukemia; mouse, in vivo, iv, 7.5 mg/kg
  Tox.: 0/8
[7]; MX-1 and A2780 xenografts, compared with CI-941
  tumor weight inhibition (in words): activity equal if not higher than CI-941
[7]; tested doses
  toxic effects (in words): absence of toxic effects
[7]; tested doses, listed as 2-[2-[(2-hydroxyethyl)amino]ethyl]-5-[[2-(methylamino)ethyl]amino]indazolo[4,3-g
  complete tumor regressions (in words): complete regression of the tumor in a statistically significant number of animals
[7]; tested doses, listed as compound of the invention
  complete tumor regressions (in words): a significant number of complete tumor regressions
[3]; [8]
  IC50: 0.54 ± 0.17 µg/mL (≈ 1.42 µM)
[3]; MTT assay, compared with doxorubicin
  in vitro cytotoxic activity (in words): activity comparable to doxorubicin

## COc1cccc2c1C(=O)c1c(O)c3c(c(O)c1C2=O)C[C@@](O)(C(=O)CO)C[C@@H]3O[C@H]1C[C@H](N)[C@H](O)[C@H](C)O1 [doxorubicin]
[3]; 1 h
  IC50: 0.7 ± 0.49 µg/mL (≈ 1.29 µM)

## O=C1c2c(O)ccc(O)c2C(=O)c2c(NCCNCCO)ccc(NCCNCCO)c21 [mitoxantrone, 5,8-dihydroxy-1,4-bis{[2-(2-hydroxyethylamino)ethyly]amino]anthracene-9,10-dione]
Human breast MX-1 tumor; 4.5 mg/kg
  TWI %: 74%
[5]
  toxicity (cardiotoxicity): cardiotoxicity
  toxicity (myelodepression): mielodepressive toxic effect
P388 murine leukemia; P388 iv/iv + 1,4,7, 3 mg/kg
  T/C %: 195%
  Tox.: 16/284
[3]; [8]
  IC50: 0.026 ± 0.017 µg/mL (≈ 0.0585 µM)
[6]
  cross-resistance: cross-resistance
